From patent US20160002391A1, “POLYMERS, SUBSTRATES, METHODS FOR MAKING SUCH, AND DEVICES COMPRISING THE SAME” (AVERTICA, INC., priority 2013, published 2016)
Structures can show the parent of a compound that is named as a salt.

These compounds were tested on mushroom tyrosinase (polyphenol oxidase) (assay: Polymer production in enzymatic tyrosinase (polyphenol oxidase) reaction). Conditions: approx. 50 mM potassium phosphate buffer pH 6.5, approx. 5 mM substrate, observed over 24 hour period.
Format: biochemical
Set-up: key: +++: Reacted within about 1 hour; ++: reacted within about 3 hours; +: reacted within about 24 hours; +/−: inconclusive results; −: no reaction
Protocol: All reactions were carried out in approximately 50 mM potassium phosphate buffer, pH 6.5 with approximately 5 mM substrate and mushroom tyrosinase (polyphenol oxidase) Sigma T3824 in an amount of 100 to 10,000 units. Reaction volumes varied from 200 μl to 2 ml. In cases where substrates were not completely solubilized, then a saturated solution was used as the limit of solubility. In some cases, a solution of DMSO was used to increase solubility of the substrates. […] The reactions were observed over a 24 hour period for the production of polymers, and the presence and color of polymer and solution was recorded.
The production of polymers in each reaction was visible as a precipitate in the well of a 96 well plate or in the reaction mixture on a glass slide.

Compound	Result (polymer production in tyrosinase reaction)
Oc1ccc2cc(O)ccc2c1 [2,6 dihydroxnaphthalene]	+ (reacted within about 24 hours)
Cl.NCCc1ccc(O)cc1 [Tyramine HCl]	+++ (Reacted within about 1 hour)
c1ccc2[nH]ccc2c1 [Indole]	−
Cl.NCCc1ccccc1 [Beta phenylethylamine HCL]	+/−
CN[C@@H](Cc1ccc(O)cc1)C(=O)O [N-methyl tyrosine]	++ (reacted within about 3 hours)
Oc1ccc2[nH]ccc2c1 [5-hydroxyindole]	+++ (Reacted within about 1 hour)
Oc1ccc2cc[nH]c2c1 [6 Hydroxyindole]	++ (reacted within about 3 hours)
NCCc1ccc(O)cc1 [Tyramine]	+++ (Reacted within about 1 hour)
N[C@@H](Cc1ccc(O)cc1)C(=O)O [Tyrosine]	++ (reacted within about 3 hours)

Same assay, conditions: as above; substrate (or marked component) dissolved in 20% DMSO

Compound	Result (polymer production in tyrosinase reaction)
Oc1ccc2c(c1)[nH]c1ccccc12 [2 Hydroxy carbazole]	−
Oc1ccc(-c2cc(-c3ccc(O)cc3)cc(-c3ccc(O)cc3)c2)cc1 [1,3,5 Tris(4hydroxyphenyl)benzene]	+ (reacted within about 24 hours)
CC1=NCCc2c1[nH]c1cc(O)ccc21 [Harmalol HCl dehydrate]	−

Each compound was assayed on mushroom tyrosinase (phenyl oxidase) (assay: Substituted substrates for phenol oxidases: polymer formation with mushroom tyrosinase). Conditions: 5 mM potassium phosphate buffer, 200 Units tyrosinase, up to 3 hours.
Format: biochemical
Protocol: 6-hydroxyindole, 6-hydroxyindole-3-carboxaldehyde, 1,2-dihydroxybenzene (catechol), 2,3-dihydroxybenzaldehyde, and 3,4-dihydroxybenezaldehyde were used as substrates for phenol oxidases.
6-hydroxyindole, 6-hydroxyindole-3-carboxaldehyde, 1,2-dihydroxybenzene (catechol), 2,3-dihydroxybenzaldehyde, and 3,4-dihydroxybenezaldehyde were dissolved in water at a concentration of 0.03 g/ml. Ten microliters of each was diluted into 90 microliter of 5 mM potassium phosphate buffer and 2 μl of mushroom tyrosinase (phenyl oxidase, 200 Units) was added. The reactions were allowed to proceed for up to 3 hours. […] Buffer alone with no substrates were used as controls and were negative for polymer formation.

Compound	Polymer formation with mushroom tyrosinase
Oc1ccccc1O [1,2-dihydroxybenzene (catechol), 1,2-dihydroxybenzene]	Polymers were formed
O=Cc1cccc(O)c1O [2,3-dihydroxybenzaldehyde]	Polymers were formed
O=Cc1ccc(O)c(O)c1 [3,4-dihydroxybenezaldehyde]	Polymers were formed
O=Cc1c[nH]c2cc(O)ccc12 [6-hydroxyindole-3-carboxaldehyde]	Polymers were formed
Oc1ccc2cc[nH]c2c1 [6 Hydroxyindole]	Polymers were formed
